Assay results published in patent US20260092071A1, “COMPOUNDS AND COMPOSITIONS AS SMARCA2/4 DEGRADERS AND USES THEREOF” (REGENTS OF THE UNIVERSITY OF MICHIGAN, priority 2022, published 2026).

Tests used:
Type in all cases: cell-based
[1] = molecular target: T1, SMARCA4 (Homo sapiens, UniProt P51532); experiment: HiBiT assay for protein degradation, Hela SMARCA4-HiBiT cells (A series); design: fuse HiBiT to the carboxy terminus of SMARCA2 (Promega CS302365) or SMARCA4 (Promega CS3023225); host or cells: HeLa (CRISPR/Cas9 HiBiT knock-in); conditions: for DC50: read-out: SMARC A4 Hela HiBit DC50
Protocol: (§1) Hela cells were genetically modified via CRISPR/Cas9 to fuse HiBiT to the carboxy terminus of SMARCA2 (Promega CS302365) or SMARCA4 (Promega CS3023225). Cells were cultured in DMEM containing 10% FBS and 1% (Vol:Vol) penicillin-streptomycin. […] At the end of experiment, levels of SMARCA2 or SMARCA4 expression were assessed with Nano-Glo® HiBiT Lytic Detection Assay (Promega N3050). IC50 was obtained using the GraphPad Prism data analysis software.

[2] = molecular target: T2, SMARCA2 (Homo sapiens, UniProt P51531); experiment: HiBiT assay for protein degradation, Hela SMARCA2-HiBiT cells (A series); design: Hela cells were genetically modified via CRISPR/Cas9 to fuse HiBiT to the carboxy terminus of SMARCA2; host or cells: HeLa (CRISPR/Cas9 HiBiT knock-in); conditions: for DC50: read-out: SMARC A2 Hela HiBit DC50; for Dmax: read-out: SMARC A2 Hela HiBit Dmax (%);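 as to SMARC A2 Hela HiBit Dmax (%): 24 h compound treatment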
Protocol: as §1

[3] = molecular target: T2, SMARCA2; experiment: HiBit assay in engineered HT1080 CRISPR knock-in cell, 6 hrs (B series), SMARCA2; conditions: 6 hrs incubation
Outline: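 HT1080 CRISPR knock-in cells carrying the HiBiT tag were seeded onto compounds (final DMSO 0.1%) and incubated 6 hrs at 37° C, 5% CO2. Remaining tagged protein was detected by lytic HiBiT luminescence after adding LgBiT protein and substrate, with LgBiT-free wells serving as negative control.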

[4] = molecular target: T1, SMARCA4; experiment: HiBit assay in engineered HT1080 CRISPR knock-in cell, 6 hrs (B series), SMARCA4; conditions: 6 hrs incubation
Outline: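 Engineered HT1080 knock-in cells, 2000 cells/well, 6 hrs compound exposure, 37° C/5% CO2, 0.1% DMSO final. Lytic detection: LgBiT 1:100 plus HiBiT substrate 1:50 in lytic buffer, 10 min shake at RT, luminescence read.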

[5] = Hela SMARCA4-HiBiT cells, 24 hours treatment
[6] = Hela SMARCA4-HiBiT cells, 24 hours treatment, read-out: SMARC A4 Hela HiBit Dmax
[7] = Hela SMARCA2-HiBiT cells, 24 hours treatment
[8] = Hela SMARCA4-HiBiT cells, 24 hours treatment, read-out: SMARC A4 Hela HiBit Dmax(%)

T1 sequence (P51532 whole entry): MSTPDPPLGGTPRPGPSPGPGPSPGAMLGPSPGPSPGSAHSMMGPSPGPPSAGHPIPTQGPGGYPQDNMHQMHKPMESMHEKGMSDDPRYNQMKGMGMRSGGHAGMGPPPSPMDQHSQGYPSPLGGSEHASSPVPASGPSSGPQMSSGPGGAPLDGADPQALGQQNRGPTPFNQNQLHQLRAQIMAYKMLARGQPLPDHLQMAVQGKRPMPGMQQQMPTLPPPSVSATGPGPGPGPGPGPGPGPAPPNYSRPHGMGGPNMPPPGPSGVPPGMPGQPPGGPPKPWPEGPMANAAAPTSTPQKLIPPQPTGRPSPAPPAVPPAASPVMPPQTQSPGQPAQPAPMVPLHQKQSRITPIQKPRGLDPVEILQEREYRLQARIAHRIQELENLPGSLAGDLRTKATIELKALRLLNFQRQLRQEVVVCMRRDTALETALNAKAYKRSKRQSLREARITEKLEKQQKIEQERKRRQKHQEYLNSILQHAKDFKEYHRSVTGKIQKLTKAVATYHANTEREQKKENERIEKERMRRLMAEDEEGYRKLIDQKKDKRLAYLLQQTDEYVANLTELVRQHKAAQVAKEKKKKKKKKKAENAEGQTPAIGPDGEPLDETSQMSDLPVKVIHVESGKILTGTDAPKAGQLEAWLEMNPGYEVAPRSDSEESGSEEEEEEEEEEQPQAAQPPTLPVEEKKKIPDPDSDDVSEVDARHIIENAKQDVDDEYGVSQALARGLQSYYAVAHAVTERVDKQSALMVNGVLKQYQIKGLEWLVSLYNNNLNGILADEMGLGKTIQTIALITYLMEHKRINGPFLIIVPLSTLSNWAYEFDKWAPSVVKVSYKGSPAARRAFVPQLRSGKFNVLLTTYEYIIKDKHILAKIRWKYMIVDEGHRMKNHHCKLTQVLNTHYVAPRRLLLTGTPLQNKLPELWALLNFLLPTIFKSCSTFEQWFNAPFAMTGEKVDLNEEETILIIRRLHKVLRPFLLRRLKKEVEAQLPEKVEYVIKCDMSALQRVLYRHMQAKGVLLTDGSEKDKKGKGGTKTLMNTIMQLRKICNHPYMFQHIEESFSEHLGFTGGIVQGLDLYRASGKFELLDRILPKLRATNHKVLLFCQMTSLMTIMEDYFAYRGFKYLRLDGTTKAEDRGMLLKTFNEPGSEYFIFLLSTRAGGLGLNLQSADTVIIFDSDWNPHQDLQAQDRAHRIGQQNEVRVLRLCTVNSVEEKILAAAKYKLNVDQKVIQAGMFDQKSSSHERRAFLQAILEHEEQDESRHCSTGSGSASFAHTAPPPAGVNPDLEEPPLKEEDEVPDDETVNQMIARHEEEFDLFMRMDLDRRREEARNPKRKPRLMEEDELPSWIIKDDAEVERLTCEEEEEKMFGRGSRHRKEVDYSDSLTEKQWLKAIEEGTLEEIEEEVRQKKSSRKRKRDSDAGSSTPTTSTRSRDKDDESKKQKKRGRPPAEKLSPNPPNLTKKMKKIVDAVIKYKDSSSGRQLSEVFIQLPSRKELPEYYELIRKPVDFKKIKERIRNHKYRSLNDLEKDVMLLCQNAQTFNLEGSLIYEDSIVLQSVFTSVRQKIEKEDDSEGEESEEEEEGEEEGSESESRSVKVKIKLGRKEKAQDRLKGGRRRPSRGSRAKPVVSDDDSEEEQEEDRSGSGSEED
T2 sequence (P51531 whole entry): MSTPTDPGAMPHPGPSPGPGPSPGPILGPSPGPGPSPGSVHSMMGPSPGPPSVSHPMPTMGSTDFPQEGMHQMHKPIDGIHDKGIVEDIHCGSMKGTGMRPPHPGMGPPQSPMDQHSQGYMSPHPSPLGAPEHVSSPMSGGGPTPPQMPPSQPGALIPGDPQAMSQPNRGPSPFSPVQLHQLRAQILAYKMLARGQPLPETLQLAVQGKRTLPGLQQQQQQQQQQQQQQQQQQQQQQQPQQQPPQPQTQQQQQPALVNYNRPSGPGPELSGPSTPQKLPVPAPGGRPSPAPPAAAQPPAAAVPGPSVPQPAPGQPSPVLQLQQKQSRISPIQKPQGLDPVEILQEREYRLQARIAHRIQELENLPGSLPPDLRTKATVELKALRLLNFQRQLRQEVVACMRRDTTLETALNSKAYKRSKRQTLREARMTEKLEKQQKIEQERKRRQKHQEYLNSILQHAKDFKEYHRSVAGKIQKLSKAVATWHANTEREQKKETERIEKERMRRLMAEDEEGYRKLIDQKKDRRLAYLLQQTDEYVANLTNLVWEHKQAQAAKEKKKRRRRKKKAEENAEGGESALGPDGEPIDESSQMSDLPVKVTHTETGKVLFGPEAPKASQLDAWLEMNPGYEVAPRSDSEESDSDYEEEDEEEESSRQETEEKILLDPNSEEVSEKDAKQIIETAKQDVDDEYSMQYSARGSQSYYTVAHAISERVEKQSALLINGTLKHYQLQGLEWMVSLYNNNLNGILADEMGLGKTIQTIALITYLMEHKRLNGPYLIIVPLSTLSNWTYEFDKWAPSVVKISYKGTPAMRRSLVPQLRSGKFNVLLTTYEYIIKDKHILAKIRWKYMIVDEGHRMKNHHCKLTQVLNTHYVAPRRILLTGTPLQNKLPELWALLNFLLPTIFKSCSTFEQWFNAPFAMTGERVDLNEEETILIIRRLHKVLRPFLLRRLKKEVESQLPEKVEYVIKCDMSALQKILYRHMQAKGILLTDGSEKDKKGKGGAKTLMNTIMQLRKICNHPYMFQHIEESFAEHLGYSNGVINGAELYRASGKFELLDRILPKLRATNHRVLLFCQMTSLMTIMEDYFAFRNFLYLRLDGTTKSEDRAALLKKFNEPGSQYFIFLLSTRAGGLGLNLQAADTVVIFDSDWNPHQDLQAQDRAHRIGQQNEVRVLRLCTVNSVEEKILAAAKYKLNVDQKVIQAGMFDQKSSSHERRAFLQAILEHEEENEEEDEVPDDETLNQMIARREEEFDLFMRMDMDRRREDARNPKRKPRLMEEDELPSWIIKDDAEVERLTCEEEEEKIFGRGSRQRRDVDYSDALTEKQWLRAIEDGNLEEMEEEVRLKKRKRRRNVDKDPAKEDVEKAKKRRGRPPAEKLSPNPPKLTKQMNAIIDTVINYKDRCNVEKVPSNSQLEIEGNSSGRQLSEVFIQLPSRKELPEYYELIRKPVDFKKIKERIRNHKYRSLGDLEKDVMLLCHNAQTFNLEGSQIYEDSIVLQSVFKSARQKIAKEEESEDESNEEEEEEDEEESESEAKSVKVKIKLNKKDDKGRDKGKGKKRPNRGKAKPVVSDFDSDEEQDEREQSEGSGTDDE

SMILES: Cc1ncsc1-c1ccc([C@H](C)NC(=O)[C@@H]2C[C@@H](O)CN2C(=O)[C@H](C2CCN(C(=O)CCCCN3CCC(c4ccc5c(c4)-n4c(nc(=O)c6c(Cl)cccc64)C54CCCCC4)CC3)CC2)n2cc(C3CC3)nn2)cc1 [Compound A107, (2S,4R)-1-((S)-2-(1-(5-(4-(4′-chloro-5′-oxo-5′H-spiro[cyclohexane-1,7′-indolo[1,2-a]quinazolin]-10′-yl)piperidin-1-yl)pentanoyl)piperidin-4-yl)-2-(4-cyclopropyl-1H-1,2,3-triazol-1-yl)acetyl)-4-hydroxy-N—((S)-1-(4-(4-methylthiazol-5-yl)phenyl)ethyl)pyrrolidine-2-carboxamide]
- DC50 [1, 5]: > 1000 nM
- Dmax [1, 6]: < 50%
- DC50 [2, 7]: 100 to 1000 nM
- Dmax [2, 7]: 70 to 90%

SMILES: CC(=O)N1CCC([C@@H](C(=O)N2C[C@H](O)C[C@H]2C(=O)N[C@@H](C)c2ccc(-c3scnc3C)cc2)n2cc([C@H]3CC[C@H](CN4CCC(c5ccc6c(c5)-n5c(nc(=O)c7c(Cl)cccc75)C65CCCCC5)CC4)CC3)nn2)CC1 [Compound A111, (2S,4R)-1-((S)-2-(1-acetylpiperidin-4-yl)-2-(4-((1r,4S)-4-((4-(4′-chloro-5′-oxo-5′H-spiro[cyclohexane-1,7′-indolo[1,2-a]quinazolin]-10′-yl)piperidin-1-yl)methyl)cyclohexyl)-1H-1,2,3-triazol-1-yl)acetyl)-4-hydroxy-N—((S)-1-(4-(4-methylthiazol-5-yl)phenyl)ethyl)pyrrolidine-2-carboxamide]
- DC50 [1, 5]: 10 to 100 nM
- Dmax [1, 6]: 70 to 90%
- DC50 [2, 7]: < 10 nM
- Dmax [2, 7]: > 90%

SMILES: Cc1ncsc1-c1ccc([C@H](CCCCCN2CCC(c3ccc4c(c3)C3(CCCC3)c3nc(=O)c5c(Cl)cccc5n3-4)CC2)NC(=O)[C@@H]2C[C@@H](O)CN2C(=O)[C@@H](NC(=O)C2(F)CC2)C(C)(C)C)cc1 [Compound A2, (2S,4R)—N—((S)-6-(4-(4′-chloro-5′-oxo-5′H-spiro[cyclopentane-1,7′-indolo[1,2-a]quinazolin]-9′-yl)piperidin-1-yl)-1-(4-(4-methylthiazol-5-yl)phenyl)hexyl)-1-((S)-2-(1-fluorocyclopropane-1-carboxamido)-3,3-dimethylbutanoyl)-4-hydroxypyrrolidine-2-carboxamide]
- DC50 [1, 5]: < 100 nM
- Dmax [1, 8]: 70 to 90%
- DC50 [2, 7]: < 100 nM
- Dmax [2, 7]: > 90%

SMILES: Cc1ncsc1-c1ccc([C@H](C)NC(=O)[C@@H]2C[C@@H](O)CN2C(=O)[C@@H](NC(=O)[C@H]2CC[C@H](CN3CCC(N4CCC(c5ccc6c(c5)C5(CCCCC5)c5nc(=O)c7c(Cl)cccc7n5-6)CC4)CC3)CC2)C(C)(C)C)cc1 [Compound A13, (2S,4R)-1-((S)-2-((1r,4S)-4-((4-(4′-chloro-5′-oxo-5′H-spiro[cyclohexane-1,7′-indolo[1,2-a]quinazolin]-9′-yl)-[1,4′-bipiperidin]-1′-yl)methyl)cyclohexane-1-carboxamido)-3,3-dimethylbutanoyl)-4-hydroxy-N—((S)-1-(4-(4-methylthiazol-5-yl)phenyl)ethyl)pyrrolidine-2-carboxamide]
- SMARC A4 Hela HiBit DC50(nM) [1, 5]: No fit
- Dmax [1, 8]: < 50%
- DC50 [2, 7]: < 100 nM
- Dmax [2, 7]: 70 to 90%

SMILES: Cc1ncsc1-c1ccc([C@H](CC(=O)N2CCC(CN3CCC(c4ccc5c(c4)-n4c(nc(=O)c6c(Br)cccc64)C54CCCCC4)CC3)CC2)NC(=O)[C@@H]2C[C@@H](O)CN2C(=O)[C@@H](n2cc(C3CC3)nn2)C(C)(C)C)cc1 [Compound A141, (2S,4R)—N—((S)-3-(4-((4-(4′-bromo-5′-oxo-5′H-spiro[cyclohexane-1,7′-indolo[1,2-a]quinazolin]-10′-yl)piperidin-1-yl)methyl)piperidin-1-yl)-1-(4-(4-methylthiazol-5-yl)phenyl)-3-oxopropyl)-1-((S)-2-(4-cyclopropyl-1H-1,2,3-triazol-1-yl)-3,3-dimethylbutanoyl)-4-hydroxypyrrolidine-2-carboxamide]
- DC50 [1, 5]: < 10 nM
- Dmax [1, 6]: > 90%
- DC50 [2, 7]: < 10 nM
- Dmax [2, 7]: > 90%

SMILES: Cc1ncsc1-c1ccc([C@H](C)NC(=O)[C@@H]2C[C@@H](O)CN2C(=O)[C@@H](n2cc([C@H]3CC[C@H](CN4CCC(c5ccc6c(n5)-n5c(nc(=O)c7c(Br)cccc75)C65CCCCC5)CC4)CC3)nn2)C(C)(C)C)cc1 [Compound A50, (2S,4R)-1-((S)-2-(4-((1r,4S)-4-((4-(4′-bromo-5′-oxo-5′H-spiro[cyclohexane-1,7′-pyrido[3′,2′: 4,5]pyrrolo[1,2-a]quinazolin]-10′-yl)piperidin-1-yl)methyl)cyclohexyl)-1H-1,2,3-triazol-1-yl)-3,3-dimethylbutanoyl)-4-hydroxy-N—((S)-1-(4-(4-methylthiazol-5-yl)phenyl)ethyl)pyrrolidine-2-carboxamide]
- SMARC A4 Hela HiBit DC50(nM) [1, 5]: No Fit
- Dmax ([2]; HeLa): > 90%
- DC50 [2, 7]: < 100 nM

SMILES: Cc1ncsc1-c1ccc([C@H](CCCCN2CCC(c3ccc4c(c3)C3(CCCC3)c3nc(=O)c5c(Cl)cccc5n3-4)CC2)NC(=O)[C@@H]2C[C@@H](O)CN2C(=O)[C@@H](NC(=O)C2(F)CC2)C(C)(C)C)cc1 [Compound A1, (2S,4R)-N-((S)-5-(4-(4′-chloro-5′-oxo-5′H-spiro[cyclopentane-1,7′-indolo[1,2-a]quinazolin]-9′-yl)piperidin-1-yl)-1-(4-(4-methylthiazol-5-yl)phenyl)pentyl)-1-((S)-2-(1-fluorocyclopropane-1-carboxamido)-3,3-dimethylbutanoyl)-4-hydroxypyrrolidine-2-carboxamide]
- DC50 [1, 5]: 100 to 500 nM
- Dmax [1, 8]: 70 to 90%
- DC50 [2, 7]: < 100 nM
- Dmax [2, 7]: > 90%

SMILES: Cc1ncsc1-c1ccc([C@H](C)NC(=O)[C@@H]2C[C@@H](O)CN2C(=O)[C@@H](n2cc([C@H]3CC[C@H](CN4CCC(c5ccc6c(c5)C5(CCCCC5)c5nc(=O)c7c(Br)cccc7n5-6)CC4)CC3)nn2)C(C)(C)C)cc1 [Compound A60, (2S,4R)-1-((S)-2-(4-((1r,4S)-4-((4-(4′-bromo-5′-oxo-5′H-spiro[cyclohexane-1,7′-indolo[1,2-a]quinazolin]-9′-yl)piperidin-1-yl)methyl)cyclohexyl)-1H-1,2,3-triazol-1-yl)-3,3-dimethylbutanoyl)-4-hydroxy-N—((S)-1-(4-(4-methylthiazol-5-yl)phenyl)ethyl)pyrrolidine-2-carboxamide]
- DC50 [1]: < 100 nM
- SMARC A2 Hela HiBit Dmax (%) [2]: A (key: A (>90% degradation); B (70-90% degradation); C (50-69% degradation); D (<50% degradation))
- DC50 [2]: < 100 nM

SMILES: Cc1ncsc1-c1ccc2c(NC(=O)[C@@H]3C[C@@H](O)CN3C(=O)[C@@H](n3cc([C@H]4CC[C@H](CN5CCC(c6ccc7c(c6)-n6c(nc(=O)c8c(Cl)cccc86)C7(C)C)CC5)CC4)nn3)C(C)(C)C)nccc2c1 [Compound B143, (2S,4R)-1-((S)-2-(4-((1r,4S)-4-((4-(4-chloro-7,7-dimethyl-5-oxo-5,7-dihydroindolo[1,2-a]quinazolin-10-yl)piperidin-1-yl)methyl)cyclohexyl)-1H-1,2,3-triazol-1-yl)-3,3-dimethylbutanoyl)-4-hydroxy-N-(6-(4-methylthiazol-5-yl)isoquinolin-1-yl)pyrrolidine-2-carboxamide]
- DC50 ([3]; HT1080 CRISPR knock-in cells, read-out: SMARC A2 HT1080 HiBit DC50): 100 to 500 nM
- Dmax ([3]; HT-1080, HT1080 CRISPR knock-in cells, read-out: SMARC A2 HT1080 HiBit Dmax (%)): 70 to 90%
- DC50 ([4]; HT1080 CRISPR knock-in cells, read-out: SMARC A4 HT1080 HiBit DC50): > 1000 nM
- Dmax ([4]; HT-1080, HT1080 CRISPR knock-in cells, read-out: SMARC A4 HT1080 HiBit Dmax(%)): < 50%
